Data published in publication PMC4506092, “Utilizing Chemical Genomics to Identify Cytochrome b as a Novel Drug Target for Chagas Disease” (PLoS Pathogens, 2015).

Key:
[1] = test system: T. cruzi epimastigote respiration (wild-type); test: T. cruzi epimastigote respiration (oxygen consumption, MitoXpress-Xtra), wild-type; format: cell-based; details: Trypanosoma cruzi; intact epimastigotes
Description: (§1) GNF7686 and cytochrome b inhibitors (0.2% DMS0 final concentration) were added to 384-well assay plates containing 20 μL of assay buffer (250 mM sucrose, 15 mM KCl, 5 mM MgCl2, 1 mM EGTA, 30 mM K2HPO4, pH 7.4) and allowed to dissolve for two hours. Meanwhile, T. cruzi epimastigotes were harvested (800 × g for 5 min at 4°C), washed twice with buffer A (10 mM Tris-HCl, pH = 7.4, 0.23 M mannitol, 0.07 M sucrose, 0.2 mM EDTA, 0.2% bovine serum albumin, 0.5 mM phenylmethanesulfonyl fluoride), and finally resuspended in buffer A at a final concentration of 150 × 10^6 epimastigotes / mL. Next, 20 μL of T. cruzi epimastigote suspension (3 x 10^6 parasites) was added to each sample well, and then 15 μL of MitoXpress-Xtra probe (Cayman Chemicals) was added (final assay volume of 60 μL). Probe phosphorescence is quenched in the presence of oxygen and is inversely proportional to the amount of oxygen present in the solution. […] The assay plate was transferred to a Gemini XPS fluorescence plate reader (Molecular Devices) and read at 3 minute intervals at excitation and emission wavelengths of 380 nm and 650 nm, respectively, for 30 minutes at 37°C. The slope for the linear portion of time course of fluorescence increase (rate of oxygen consumption) was calculated after subtraction of blank well values. […]

[2] = test system: rat skeletal muscle mitochondria respiration; test: Respiration of isolated rat skeletal muscle mitochondria (oxygen consumption); format: biochemical; details: mitochondria from rat skeletal muscle
Description: as §1, with “mL.” for “mL. Next, 20 μL of T. cruzi epimastigote suspension (3 x 10^6 parasites) was added to each sample well, and then 15 μL of MitoXpress-Xtra probe (Cayman Chemicals) was added (final assay volume of 60 μL). Probe phosphorescence is quenched in the presence of oxygen and is inversely proportional to the amount of oxygen present in the solution.”
Sprague Dawley rats were euthanized and skeletal muscle (from hind legs) was removed and stored in CP1 buffer (0.1 M KCl, 0.05 M Tris, 2 mM EGTA, pH 7.4 at 4°C) on ice. […] Respiration in isolated rat mitochondria was measured using the same protocol as described for T. cruzi epimastigotes using 150 μg protein / sample.

[3] = test system: T. cruzi epimastigote respiration (GNF7686-resistant, DR); test: T. cruzi epimastigote respiration (oxygen consumption, MitoXpress-Xtra), GNF7686-resistant; format: cell-based, Trypanosoma cruzi; details: for IC50: Trypanosoma cruzi, intact epimastigotes
Description: GNF7686 and cytochrome b inhibitors (0.2% DMS0 final concentration) were added to 384-well assay plates containing 20 μL of assay buffer (250 mM sucrose, 15 mM KCl, 5 mM MgCl2, 1 mM EGTA, 30 mM K2HPO4, pH 7.4) and allowed to dissolve for two hours. Meanwhile, T. cruzi epimastigotes were harvested (800 × g for 5 min at 4°C), washed twice with buffer A (10 mM Tris-HCl, pH = 7.4, 0.23 M mannitol, 0.07 M sucrose, 0.2 mM EDTA, 0.2% bovine serum albumin, 0.5 mM phenylmethanesulfonyl fluoride), and finally resuspended in buffer A at a final concentration of 150 × 10^6 epimastigotes / mL. Next, 20 μL of T. cruzi epimastigote suspension (3 x 10^6 parasites) was added to each sample well, and then 15 μL of MitoXpress-Xtra probe (Cayman Chemicals) was added (final assay volume of 60 μL). Probe phosphorescence is quenched in the presence of oxygen and is inversely proportional to the amount of oxygen present in the solution. HS mineral oil (20 μL, Cayman Chemicals) was added to wells to prevent oxygen exchange between the assay buffer and air. Blank wells containing assay buffer without parasites, corresponding compound, and mineral oil were prepared in parallel and values were subtracted from sample values to specifically measure changes in oxygen concentration caused by parasite respiration. All sample and blank wells were prepared in duplicate. The assay plate was transferred to a Gemini XPS fluorescence plate reader (Molecular Devices) and read at 3 minute intervals at excitation and emission wavelengths of 380 nm and 650 nm, respectively, for 30 minutes at 37°C. The slope for the linear portion of time course of fluorescence increase (rate of oxygen consumption) was calculated after subtraction of blank well values. Obtained slope values were normalized to the slope obtained for 0.2% DMSO, and plotted against the corresponding compound concentration for half maximal inhibitory concentration (IC50) value determination.

[4] = Mammalian cell cytotoxicity assay (CellTiter-Glo); format: cell-based, mouse; details: mouse; NIH/3T3, 96 hours; read-out: CC50, 3T3 cell line
Description: NIH/3T3 fibroblast cells were maintained in RPMI-1640 medium supplemented with 10% heat-inactivated FBS and 100 IU penicillin / 100 μg streptomycin per mL at 37°C / 5% CO2. For compound screening, cells were diluted to 4 × 10^4 cells / mL in assay medium (RPMI-1640, 5% FBS, and 100 IU penicillin / 100 μg streptomycin per mL) and seeded at 50 μL / well into 384-well plates. Following overnight incubation, compounds were added to each well (0.2% DMSO final concentration) and plates were further incubated for 96 hours. Cell viability was assessed using the CellTiter-Glo Luminescent Cell Viability Assay (Promega). Measured luminescence values were normalized to the value obtained for 0.2% DMSO, and plotted against the corresponding compound concentration for half maximal cytotoxic concentration (CC50) value determination.

[5] = test system: T. cruzi intracellular amastigotes (wild-type); test: T. cruzi intracellular amastigote efficacy assay in NIH/3T3 cells, wild-type strain; format: cell-based; details: Trypanosoma cruzi, NIH3T3, intracellular amastigotes in NIH/3T3, 48-hour treatment, read-out: Amastigote EC50, WT
Description: To determine compound efficacy on T. cruzi intracellular amastigotes, NIH/3T3 cells were seeded (1,000 cells / well, 40 μL) into microscopy-grade, clear bottom, 384-well plates (Greiner) in RPMI-1640 medium containing 5% heat-inactivated fetal bovine serum and 100 IU penicillin / 100 μg streptomycin per mL. Plates were incubated overnight at 37°C / 5% CO2. Cells were infected with T. cruzi trypomastigotes at a multiplicity of infection (MOI) of 10 for the wild-type strain, and 20 for the GNF7686-resistant mutant strain. After six hours of infection (at 37°C / 5% CO2), the plates were washed by aspirating the medium and replacing with fresh screening medium to remove remaining extracellular trypomastigotes. The plates with infected cells were incubated overnight (37°C / 5% CO2) and compounds dissolved in DMSO were added to plate wells on the following day (0.2% DMSO final concentration). […] The plates were then scanned using the Evotec Opera High Content Screening System (Perkin Elmer) and amastigote proliferation was assessed by counting parasites within the 3T3 cells using CellProfiler version 2.1.0 cell image analysis software. […]

in vivo = details: mouse

| SMILES | IC50 [1] | IC50 ([2]; read-out: Rat mitochondrial respiration IC50) | Loss of potency on respiration, GNF7686-resistant vs wild-type [3] | IC50 [3] | CC50 [4] | Mammalian (rat) mitochondrial respiration: no effect on oxygen consumption up to [2] | EC50 [5] | clearance (in vivo) | bioavailability (in vivo; po) |
| --- | --- | --- | --- | --- | --- | --- | --- | --- | --- |
| CCCCCC[C@H]1C(=O)O[C@H](C)[C@H](NC(=O)c2cccc(NC=O)c2O)C(=O)O[C@@H](C)[C@@H]1OC(=O)CC(C)C [Antimycin A] | 0.04 µM | 0.81 µM | ~ 7 fold | 0.27 µM |  |  |  |  |  |
| CCc1c(C)c(C#N)c2nc3ccccc3n2c1O [GNF7686] | 0.21 µM |  |  | 5.2 µM | > 20 µM | > 25 µM | 0.15 ± 0.03 µM | 53 mL/min/kg | 6% |
| O=C(Cn1ccnc1[N+](=O)[O-])NCc1ccccc1 [Benznidazole] |  |  |  |  |  |  | 1.4 ± 0.17 µM |  |  |
